# Reference: patent US20120269793A1, “PHYTOESTROGENIC FORMULATIONS FOR ALLEVIATION OR PREVENTION OF HAIR LOSS” (University of Southern California, priority 2010, published 2012)
# How the values were obtained:
# [1] = target: T1, ERα (Homo sapiens, UniProt P03372); assay: fluorescent polarization competitive binding assay, ERα; parameters: purchased PanVera Corp; host or cells: baculovirus expression; settings: for IC50: class symbol NC
# T1 sequence (P03372 1-595): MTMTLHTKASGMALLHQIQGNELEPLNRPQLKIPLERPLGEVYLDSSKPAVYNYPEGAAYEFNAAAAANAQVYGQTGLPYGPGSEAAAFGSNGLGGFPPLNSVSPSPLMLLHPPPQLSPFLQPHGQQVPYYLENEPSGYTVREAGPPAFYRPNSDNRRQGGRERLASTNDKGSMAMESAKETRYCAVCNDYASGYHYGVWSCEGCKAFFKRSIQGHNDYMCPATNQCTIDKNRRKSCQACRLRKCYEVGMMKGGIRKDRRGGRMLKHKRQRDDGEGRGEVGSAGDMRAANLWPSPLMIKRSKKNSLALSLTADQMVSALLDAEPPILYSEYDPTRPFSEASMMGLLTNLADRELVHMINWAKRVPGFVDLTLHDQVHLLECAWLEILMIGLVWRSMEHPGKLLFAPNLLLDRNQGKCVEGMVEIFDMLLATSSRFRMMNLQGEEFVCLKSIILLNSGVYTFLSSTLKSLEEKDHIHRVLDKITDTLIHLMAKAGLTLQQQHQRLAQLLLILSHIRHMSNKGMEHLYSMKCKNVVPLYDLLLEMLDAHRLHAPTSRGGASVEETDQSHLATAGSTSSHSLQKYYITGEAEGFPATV
# [2] = target: T2, ERβ (Homo sapiens, UniProt Q92731); assay: fluorescent polarization competitive binding assay, ERβ; parameters: purchased PanVera Corp; host or cells: baculovirus expression; settings: for IC50: class symbol NC
# Target sequence in this assay (Q92731 whole entry): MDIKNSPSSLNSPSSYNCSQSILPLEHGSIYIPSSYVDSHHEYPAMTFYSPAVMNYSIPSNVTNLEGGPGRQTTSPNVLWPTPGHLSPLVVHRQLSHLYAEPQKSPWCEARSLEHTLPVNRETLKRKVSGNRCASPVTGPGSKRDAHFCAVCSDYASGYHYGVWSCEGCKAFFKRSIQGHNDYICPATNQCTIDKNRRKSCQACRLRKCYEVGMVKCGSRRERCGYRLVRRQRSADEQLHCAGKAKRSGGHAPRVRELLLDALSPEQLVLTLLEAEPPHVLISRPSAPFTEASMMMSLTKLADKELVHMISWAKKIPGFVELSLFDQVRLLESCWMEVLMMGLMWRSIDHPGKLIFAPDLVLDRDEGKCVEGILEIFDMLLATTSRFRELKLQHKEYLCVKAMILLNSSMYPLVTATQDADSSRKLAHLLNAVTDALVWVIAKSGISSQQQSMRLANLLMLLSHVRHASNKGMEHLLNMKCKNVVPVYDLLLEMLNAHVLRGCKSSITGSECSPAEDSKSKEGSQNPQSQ
# [3] = target: T1, ERα; settings: cited from earlier work
# [4] = target: T2, ERβ; settings: cited from earlier work
# Target sequence in this assay (Q92731 whole entry, species assumed): as the sequence (Q92731 whole entry) above
compound,measurement,setting,value
Oc1ccc(C2COc3cc(O)ccc3C2)cc1 (stereo not shown) [Compd 2],IC50,[1],> 1000 µM
O=c1nc2n(c3cc4ccccc4cc13)Cc1ccccc1-2 [Compd 12],binding to ERβ / the receptor (in words),[2],either very weak or no binding
Oc1ccc([C@H]2COc3cc(O)ccc3C2)cc1 [S-equol],binding affinity for ERα compared to ERβ,[3],10 fold less
same,relative binding affinity for ERα compared to 17β-estradiol,[3],49.2 fold less
same,Kd,[4],0.0007 µM
same,binding to ERβ relative to 17β-estradiol,[4],approximately 20%
"CC(=O)[C@H]1CC[C@H]2[C@@H]3CCC4=CC(=O)CC[C@]4(C)[C@H]3CC[C@]12C [progesterone, reference compound]",binding to ERα (in words),[1],does not bind
same,binding to ERβ / the receptor (in words),[2],does not bind
O=c1oc2cc(OCc3cccc(O)c3)ccc2c2c1CCC2 [Compd 10],IC50,[1],> 1000 µM
same,binding to ERβ / the receptor (in words),[2],either very weak or no binding
same,IC50,[2],> 1000 µM
Cc1oc2cc(O)ccc2c(=O)c1-c1cc2ccccc2o1 [Compd 4],IC50,[1],> 1000 µM
same,binding to ERβ / the receptor (in words),[2],either very weak or no binding
same,IC50,[2],> 1000 µM
Oc1ccc([C@@H]2COc3cc(O)ccc3C2)cc1 [R-equol],relative binding affinity for ERα compared to 17β-estradiol,[3],210.6 fold less
same,"binding to ERβ, R-equol enantiomer, fold less",[4],approximately 100 fold less
